Measurements: ChEMBL document CHEMBL3046898, “Synthesis and characterization of flurbiprofen hydrazide derivatives as potential anti-HCV, anticancer and antimicrobial agents” (2013)
Active and inactive are the calls of the source. No cut-off for these calls is given here.

What was measured:
Micrococcus lylae [1] = assay: Antibacterial activity against Micrococcus lylae at 6.25 to 200 ug/ml after 24 hrs by microwell dilution method; format: functional, organism-based
Pseudomonas aeruginosa [2] = assay: Antibacterial activity against Pseudomonas aeruginosa at 6.25 to 200 ug/ml after 24 hrs by microwell dilution method; format: functional, organism-based
Proteus vulgaris [3] = assay: Antibacterial activity against Proteus vulgaris at 6.25 to 200 ug/ml after 24 hrs by microwell dilution method; format: functional, organism-based
Escherichia coli [4] = assay: Antibacterial activity against Escherichia coli at 6.25 to 200 ug/ml after 24 hrs by microwell dilution method; format: functional, organism-based
Staphylococcus cohnii [5] = assay: Antibacterial activity against Staphylococcus cohnii at 6.25 to 200 ug/ml after 24 hrs by microwell dilution assay; format: functional, organism-based
Staphylococcus aureus [6] = assay: Antibacterial activity against Staphylococcus aureus at 6.25 to 200 ug/ml after 24 hrs by microwell dilution assay; format: functional, organism-based
Micrococcus luteus [7] = assay: Antibacterial activity against Micrococcus luteus at 6.25 to 200 ug/ml after 24 hrs by microwell dilution method; format: functional, organism-based
Aspergillus = assay: Antifungal activity against Aspergillus at 10 mg/ml after 72 hrs by disc diffusion method; format: functional, organism-based
Pichia membranifaciens = assay: Antifungal activity against Pichia membranifaciens at 10 mg/ml after 48 hrs by disc diffusion method; format: functional, organism-based
Kluyveromyces marxianus = assay: Antifungal activity against Kluyveromyces marxianus at 10 mg/ml after 48 hrs by disc diffusion method; format: functional, organism-based
[8] = test system: Schwanniomyces occidentalis; assay: Antifungal activity against Schwanniomyces occidentalis at 10 mg/ml after 48 hrs by disc diffusion method; format: functional, organism-based
Nakaseomyces glabratus = assay: Antifungal activity against Candida glabrata at 10 mg/ml after 48 hrs by disc diffusion method; format: functional, organism-based
Candida parapsilosis = assay: Antifungal activity against Candida parapsilosis at 10 mg/ml after 48 hrs by disc diffusion method; format: functional, organism-based
Candida tropicalis = assay: Antifungal activity against Candida tropicalis at 10 mg/ml after 48 hrs by disc diffusion method; format: functional, organism-based
Candida albicans = assay: Antifungal activity against Candida albicans at 10 mg/ml after 48 hrs by disc diffusion method; format: functional, organism-based
Photorhabdus luminescens [9] = assay: Antibacterial activity against Photorhabdus luminescens at 10 mg/ml after 24 hrs by disc diffusion method; format: functional, organism-based
Klebsiella aerogenes [10] = assay: Antibacterial activity against Enterobacter aerogenes at 6.25 to 200 ug/ml after 24 hrs by microwell dilution method; format: functional, organism-based
Photorhabdus luminescens [11] = assay: Antibacterial activity against Photorhabdus luminescens at 6.25 to 200 ug/ml after 24 hrs by microwell dilution method; format: functional, organism-based
[12] = test system: Acinetobacter radioresistens; assay: Antibacterial activity against Acinetobacter radioresistens at 6.25 to 200 ug/ml after 24 hrs by microwell dilution method; format: functional, organism-based
Salmonella paratyphi [13] = assay: Antibacterial activity against Salmonella paratyphi at 6.25 to 200 ug/ml after 24 hrs by microwell dilution method; format: functional, organism-based; conditions: Salmonella enterica subsp. enterica serovar Paratyphi A
Klebsiella aerogenes [14] = assay: Antibacterial activity against Enterobacter aerogenes at 10 mg/ml after 24 hrs by disc diffusion method; format: functional, organism-based
[15] = test system: Acinetobacter radioresistens; assay: Antibacterial activity against Acinetobacter radioresistens at 10 mg/ml after 24 hrs by disc diffusion method; format: functional, organism-based
Salmonella paratyphi [16] = assay: Antibacterial activity against Salmonella paratyphi at 10 mg/ml after 24 hrs by disc diffusion method; format: functional, organism-based; conditions: Salmonella enterica subsp. enterica serovar Paratyphi A
Micrococcus lylae [17] = assay: Antibacterial activity against Micrococcus lylae at 10 mg/ml after 24 hrs by disc diffusion method; format: functional, organism-based
Pseudomonas aeruginosa [18] = assay: Antibacterial activity against Pseudomonas aeruginosa at 10 mg/ml after 24 hrs by disc diffusion method; format: functional, organism-based
Escherichia coli [19] = assay: Antibacterial activity against Escherichia coli at 10 mg/ml after 24 hrs by disc diffusion method; format: functional, organism-based
Proteus vulgaris [20] = assay: Antibacterial activity against Proteus vulgaris at 10 mg/ml after 24 hrs by disc diffusion method; format: functional, organism-based
Micrococcus luteus [21] = assay: Antibacterial activity against Micrococcus luteus at 10 mg/ml after 24 hrs by disc diffusion method; format: functional, organism-based
Staphylococcus aureus [22] = assay: Antibacterial activity against Staphylococcus aureus at 10 mg/ml after 24 hrs by disc diffusion method; format: functional
Staphylococcus cohnii [23] = assay: Antibacterial activity against Staphylococcus cohnii at 10 mg/ml after 24 hrs by disc diffusion method; format: functional
Hepacivirus hominis = assay: Inhibition of HCV N-terminal His-tagged NS5B RNA dependent RNA polymerase expressed in Escherichia coli DH5alpha using poly rA/U12 as primer at 200 uM after 60 mins by liquid scintillation counting

## CC(C(=O)N/N=C/c1ccc([N+](=O)[O-])o1)c1ccc(-c2ccccc2)c(F)c1 (centres undefined)
Micrococcus lylae [1]
  Activity: inactive
Pseudomonas aeruginosa [2]
  Activity: inactive
Proteus vulgaris [3]
  Activity: inactive
Escherichia coli [4]
  Activity: inactive
Staphylococcus cohnii [5]
  Activity: inactive
Staphylococcus aureus [6]
  Activity: inactive
Micrococcus luteus [7]
  Activity: inactive
Aspergillus
  Activity: inactive
Pichia membranifaciens
  Activity: inactive
Kluyveromyces marxianus
  Activity: inactive
[8]
  Activity: inactive
Nakaseomyces glabratus
  Activity: inactive
Candida parapsilosis
  Activity: inactive
Candida tropicalis
  Activity: inactive
Candida albicans
  Activity: inactive
Photorhabdus luminescens [9]
  Activity: inactive
Klebsiella aerogenes [10]
  Activity: inactive
Photorhabdus luminescens [11]
  Activity: inactive
[12]
  Activity: inactive
Salmonella paratyphi [13]
  Activity: inactive
Klebsiella aerogenes [14]
  Activity: inactive
[15]
  Activity: inactive
Salmonella paratyphi [16]
  Activity: inactive
Micrococcus lylae [17]
  Activity: inactive
Pseudomonas aeruginosa [18]
  Activity: inactive
Escherichia coli [19]
  Activity: inactive
Proteus vulgaris [20]
  Activity: inactive
Micrococcus luteus [21]
  Activity: inactive
Staphylococcus aureus [22]
  Activity: inactive
Staphylococcus cohnii [23]
  Activity: inactive
Hepacivirus hominis
  inhibition: 8%

## CC(C(=O)NN1C(=O)CSC1c1ccccc1Cl)c1ccc(-c2ccccc2)c(F)c1 (centres undefined)
Micrococcus lylae [1]
  Activity: inactive
Pseudomonas aeruginosa [2]
  Activity: inactive
Proteus vulgaris [3]
  Activity: inactive
Escherichia coli [4]
  Activity: inactive
Staphylococcus cohnii [5]
  Activity: inactive
Staphylococcus aureus [6]
  Activity: inactive
Micrococcus luteus [7]
  Activity: inactive
Aspergillus
  Activity: inactive
Pichia membranifaciens
  Activity: inactive
Kluyveromyces marxianus
  Activity: inactive
[8]
  Activity: inactive
Nakaseomyces glabratus
  Activity: inactive
Candida parapsilosis
  Activity: inactive
Candida tropicalis
  Activity: inactive
Candida albicans
  Activity: inactive
Photorhabdus luminescens [9]
  Activity: inactive
Klebsiella aerogenes [10]
  Activity: inactive
Photorhabdus luminescens [11]
  Activity: inactive
[12]
  Activity: inactive
Salmonella paratyphi [13]
  Activity: inactive
Klebsiella aerogenes [14]
  Activity: inactive
[15]
  Activity: inactive
Salmonella paratyphi [16]
  Activity: inactive
Micrococcus lylae [17]
  Activity: inactive
Pseudomonas aeruginosa [18]
  Activity: inactive
Escherichia coli [19]
  Activity: inactive
Proteus vulgaris [20]
  Activity: inactive
Micrococcus luteus [21]
  Activity: inactive
Staphylococcus aureus [22]
  Activity: inactive
Staphylococcus cohnii [23]
  Activity: inactive
Hepacivirus hominis
  inhibition: 70%

## Cc1cc(C)c(/C=N/NC(=O)C(C)c2ccc(-c3ccccc3)c(F)c2)c(C)c1 (centres undefined)
Micrococcus lylae [1]
  Activity: inactive
Pseudomonas aeruginosa [2]
  Activity: inactive
Proteus vulgaris [3]
  Activity: inactive
Escherichia coli [4]
  Activity: inactive
Staphylococcus cohnii [5]
  Activity: inactive
Staphylococcus aureus [6]
  Activity: inactive
Micrococcus luteus [7]
  Activity: inactive
Aspergillus
  Activity: inactive
Pichia membranifaciens
  Activity: inactive
Kluyveromyces marxianus
  Activity: inactive
[8]
  Activity: inactive
Nakaseomyces glabratus
  Activity: inactive
Candida parapsilosis
  Activity: inactive
Candida tropicalis
  Activity: inactive
Candida albicans
  Activity: inactive
Photorhabdus luminescens [9]
  Activity: inactive
Klebsiella aerogenes [10]
  Activity: inactive
Photorhabdus luminescens [11]
  Activity: inactive
[12]
  Activity: inactive
Salmonella paratyphi [13]
  Activity: inactive
Klebsiella aerogenes [14]
  Activity: inactive
[15]
  Activity: inactive
Salmonella paratyphi [16]
  Activity: inactive
Micrococcus lylae [17]
  Activity: inactive
Pseudomonas aeruginosa [18]
  Activity: inactive
Escherichia coli [19]
  Activity: inactive
Proteus vulgaris [20]
  Activity: inactive
Micrococcus luteus [21]
  Activity: inactive
Staphylococcus aureus [22]
  Activity: inactive
Staphylococcus cohnii [23]
  Activity: inactive
Hepacivirus hominis
  inhibition: 8%

## CC(C(=O)N/N=C/c1ccccc1F)c1ccc(-c2ccccc2)c(F)c1 (centres undefined)
Micrococcus lylae [1]
  Activity: inactive
Pseudomonas aeruginosa [2]
  Activity: inactive
Proteus vulgaris [3]
  Activity: inactive
Escherichia coli [4]
  Activity: inactive
Staphylococcus cohnii [5]
  Activity: inactive
Staphylococcus aureus [6]
  Activity: inactive
Micrococcus luteus [7]
  Activity: inactive
Aspergillus
  Activity: inactive
Pichia membranifaciens
  Activity: inactive
Kluyveromyces marxianus
  Activity: inactive
[8]
  Activity: inactive
Nakaseomyces glabratus
  Activity: inactive
Candida parapsilosis
  Activity: inactive
Candida tropicalis
  Activity: inactive
Candida albicans
  Activity: inactive
Photorhabdus luminescens [9]
  Activity: inactive
Klebsiella aerogenes [10]
  Activity: inactive
Photorhabdus luminescens [11]
  Activity: inactive
[12]
  Activity: inactive
Salmonella paratyphi [13]
  Activity: inactive
Klebsiella aerogenes [14]
  Activity: inactive
[15]
  Activity: inactive
Salmonella paratyphi [16]
  Activity: inactive
Micrococcus lylae [17]
  Activity: inactive
Pseudomonas aeruginosa [18]
  Activity: inactive
Escherichia coli [19]
  Activity: inactive
Proteus vulgaris [20]
  Activity: inactive
Micrococcus luteus [21]
  Activity: inactive
Staphylococcus aureus [22]
  Activity: inactive
Staphylococcus cohnii [23]
  Activity: inactive
Hepacivirus hominis
  inhibition: 8%
